The test system of the test is BDF1 mice, s.c. Lewis lung carcinoma, T/C %. Put plainly: NCI In Vivo Anticancer Drug Screen. Data for tumor model Lewis Lung Carcinoma (subcutaneous) in B6D2F1 (BDF1) mice. In outline:
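Readout: survival or tumor size, expressed as treated (T) over vehicle control (C). Transplantable tumor implanted in mice; compound given to the treated group.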

The mark [1] stands for this setting: endpoint: median survival time, dose: 12.5 mg/kg/injection, schedule: Q01DX009 (ip), vehicle: Klucel (hydroxypropylcellulose) (HPC), higher = longer survival.
Setting [2] is: endpoint: median survival time, dose: 25.0 mg/kg/injection, schedule: Q01DX009 (ip), vehicle: Klucel (hydroxypropylcellulose) (HPC), higher = longer survival.
Setting [3] is: endpoint: median survival time, dose: 2.5 mg/kg/injection, schedule: Q01DX009 (ip), vehicle: Klucel (hydroxypropylcellulose) (HPC), higher = longer survival.
The mark [4] stands for this setting: endpoint: median survival time, dose: 5.0 mg/kg/injection, schedule: Q01DX009 (ip), vehicle: Klucel (hydroxypropylcellulose) (HPC), higher = longer survival.

Where “and” joins values, the source holds several entries; their conditions need not be identical. Identical values can stand only once. Inconclusive results are not listed.

With `COc1ccccc1NC(=O)N(CCCl)N=O`, the T/C by setting is: (endpoint: median survival time, dose: 0.39 mg/kg/injection, schedule: Q01DX009 (ip), vehicle: saline with Tween-80, higher = longer survival) 95 % of control; (endpoint: median survival time, dose: 0.78 mg/kg/injection, schedule: Q01DX009 (ip), vehicle: saline with Tween-80, higher = longer survival) 88 % of control; (endpoint: median survival time, dose: 1.56 mg/kg/injection, schedule: Q01DX009 (ip), vehicle: saline with Tween-80, higher = longer survival) 93 % of control; (endpoint: median survival time, dose: 3.13 mg/kg/injection, schedule: Q01DX009 (ip), vehicle: saline with Tween-80, higher = longer survival) 98 % of control.
In the case of `COc1ccc(C[C@H](N)C(=O)NC2C(CO)OC(n3cnc4c(N(C)C)ncnc43)C2O)cc1` (stereo partly specified), the T/C by setting is: (endpoint: median survival time, dose: 2.0 mg/kg/injection, schedule: Q01DX009 (ip), vehicle: saline, higher = longer survival) 97 % of control; (endpoint: median survival time, dose: 4.0 mg/kg/injection, schedule: Q01DX009 (ip), vehicle: saline, higher = longer survival) 96 % of control and 101 % of control; (endpoint: median survival time, dose: 8.0 mg/kg/injection, schedule: Q01DX009 (ip), vehicle: saline, higher = longer survival) 102 % of control; (endpoint: median survival time, dose: 16.0 mg/kg/injection, schedule: Q01DX009 (ip), vehicle: saline, higher = longer survival) 99 % of control; (endpoint: median survival time, dose: 32.0 mg/kg/injection, schedule: Q01DX009 (ip), vehicle: saline, higher = longer survival) 90 % of control and 110 % of control; (endpoint: median survival time, dose: 64.0 mg/kg/injection, schedule: Q01DX009 (ip), vehicle: saline, higher = longer survival) 97 % of control and 102 % of control. Besides, under “endpoint: median survival time, dose: 128.0 mg/kg/injection, schedule: Q01DX009 (ip), vehicle: saline, higher = longer survival”, the T/C is 102 % of control.
Turning to `O=C(O)Cc1ccc(C2CCCCC2)cc1`, the T/C reads like this: (endpoint: mean tumor weight, dose: 150.0 mg/kg/injection, schedule: Q01DX011 (ip), vehicle: carboxymethylcellulose (CMC), higher = larger tumour) 67 % of control; (endpoint: mean tumor weight, dose: 225.0 mg/kg/injection, schedule: Q01DX011 (ip), vehicle: carboxymethylcellulose (CMC), higher = larger tumour) 88 % of control; (endpoint: mean tumor weight, dose: 335.0 mg/kg/injection, schedule: Q01DX011 (ip), vehicle: carboxymethylcellulose (CMC), higher = larger tumour) 100 % of control.
Turning to `COc1c(OC)c(OC)c(-c2cc(=O)c3c(OC)c(OC)c(OC)c(OC)c3o2)c(OC)c1OC`, the T/C by setting is: (endpoint: mean tumor weight, dose: 50.0 mg/kg/injection, schedule: Q01DX011 (sc), vehicle: steriod suspending solution, higher = larger tumour) 97 % of control; (endpoint: mean tumor weight, dose: 100.0 mg/kg/injection, schedule: Q01DX011 (sc), vehicle: steriod suspending solution, higher = larger tumour) 105 % of control; (endpoint: mean tumor weight, dose: 200.0 mg/kg/injection, schedule: Q01DX011 (sc), vehicle: steriod suspending solution, higher = larger tumour) 97 % of control; (endpoint: mean tumor weight, dose: 400.0 mg/kg/injection, schedule: Q01DX011 (sc), vehicle: steriod suspending solution, higher = larger tumour) 83 % of control.
As to `CCC1NC(=O)C(NC(=O)c2ncccc2O)C(C)OC(=O)C(c2ccccc2)NC(=O)C2CC(=O)CCN2C(=O)C(Cc2ccccc2)N(C)C(=O)C2CCCN2C1=O` (stereo unspecified) (tested in a mixture with another compound), the T/C (endpoint: median survival time, dose: 9.4 mg/kg/injection, schedule: Q01DX009 (ip), vehicle: Klucel (hydroxypropylcellulose) (HPC), higher = longer survival) was 102 % of control; the T/C (endpoint: median survival time, dose: 18.75 mg/kg/injection, schedule: Q01DX009 (ip), vehicle: Klucel (hydroxypropylcellulose) (HPC), higher = longer survival) is 87 % of control; the T/C (endpoint: median survival time, dose: 37.5 mg/kg/injection, schedule: Q01DX009 (ip), vehicle: Klucel (hydroxypropylcellulose) (HPC), higher = longer survival) was 94 % of control.
With `O=NN(CCCl)C(=O)NCC1CCC(CNC(=O)N(CCCl)N=O)CC1` (stereo unspecified), the T/C is 50 % of control (endpoint: mean tumor weight, dose: 400.0 mg/kg/injection, schedule: Q01DX001 (ip), vehicle: carboxymethylcellulose (CMC), higher = larger tumour); 36 % of control (endpoint: mean tumor weight, dose: 600.0 mg/kg/injection, schedule: Q01DX001 (ip), vehicle: carboxymethylcellulose (CMC), higher = larger tumour); 92 % of control (endpoint: median survival time, dose: 3.12 mg/kg/injection, schedule: Q01DX009 (ip), vehicle: Klucel (hydroxypropylcellulose) (HPC), higher = longer survival); 93 % of control (endpoint: median survival time, dose: 6.25 mg/kg/injection, schedule: Q01DX009 (ip), vehicle: Klucel (hydroxypropylcellulose) (HPC), higher = longer survival); 98 % of control under setting [1]; 100 % of control under setting [2].
As to `CC1(c2ccc(N(CCCl)CCCl)cc2)NC(=O)NC1=O` (stereo unspecified), the T/C is 111 % of control under setting [1]; 91 % of control under setting [2]; 98 % of control (endpoint: median survival time, dose: 50.0 mg/kg/injection, schedule: Q01DX009 (ip), vehicle: Klucel (hydroxypropylcellulose) (HPC), higher = longer survival); 115 % of control (endpoint: median survival time, dose: 100.0 mg/kg/injection, schedule: Q01DX009 (ip), vehicle: Klucel (hydroxypropylcellulose) (HPC), higher = longer survival).
As to `O=[N+]([O-])c1ccc2c(N=Nc3ccc4ccccc4c3O)c(O)cc(S(=O)(=O)O)c2c1`, the T/C (endpoint: median survival time, dose: 37.5 mg/kg/injection, schedule: Q01DX009 (ip), vehicle: saline, higher = longer survival) was 101 % of control; the T/C (endpoint: median survival time, dose: 75.0 mg/kg/injection, schedule: Q01DX009 (ip), vehicle: saline, higher = longer survival) is 109 % of control; the T/C (endpoint: median survival time, dose: 150.0 mg/kg/injection, schedule: Q01DX009 (ip), vehicle: saline, higher = longer survival) was 94 % of control.
`COC(=O)[C@@H]1[C@@H](O)[C@H](OC(=O)c2cc(OC)c(OC)c(OC)c2)C[C@@H]2CN3CCc4c([nH]c5ccccc45)[C@H]3C[C@@H]21`: the T/C was 108 % of control (endpoint: median survival time, dose: 1.25 mg/kg/injection, schedule: Q01DX009 (ip), vehicle: Klucel (hydroxypropylcellulose) (HPC), higher = longer survival); 122 % of control under setting [3]; 88 % of control under setting [4].
Consider `O=[N+]([O-])c1cc([N+](=O)[O-])c(Br)cc1Cl`, for which the T/C by setting is: under setting [3], 104 % of control; under setting [4], 97 % of control; (endpoint: median survival time, dose: 10.0 mg/kg/injection, schedule: Q01DX009 (ip), vehicle: Klucel (hydroxypropylcellulose) (HPC), higher = longer survival) 105 % of control.
With `CCC1CCC(NC(=O)N(CCF)N=O)CC1` (stereo unspecified), the T/C (endpoint: median tumor weight (est.), dose: 50.0 mg/kg/injection, schedule: Q01DX001 (ip), vehicle: saline with Tween-80, higher = larger tumour) is 62 % of control.
Regarding `CN(C)CCCNc1c2ccccc2nc2cccc([N+](=O)[O-])c12`, the T/C was 98 % of control and 118 % of control (endpoint: median survival time, dose: 2.0 micrograms/kg/injection, schedule: Q01DX009 (ip), vehicle: saline, higher = longer survival); 89 % of control (endpoint: median survival time, dose: 8.0 micrograms/kg/injection, schedule: Q01DX009 (ip), vehicle: saline, higher = longer survival); 109 % of control (endpoint: median survival time, dose: 16.0 micrograms/kg/injection, schedule: Q01DX009 (ip), vehicle: saline, higher = longer survival); 95 % of control (endpoint: median survival time, dose: 32.0 micrograms/kg/injection, schedule: Q01DX009 (ip), vehicle: saline, higher = longer survival); 93 % of control (endpoint: median survival time, dose: 125.0 micrograms/kg/injection, schedule: Q01DX009 (ip), vehicle: saline, higher = longer survival).
As to `CC1CCC2(NC1)OC1CC3C4CCC5CC(OC6OC(CO)C(OC7OC(CO)C(O)C(OC8OCC(O)C(O)C8O)C7OC7OC(CO)C(O)C(O)C7O)C(O)C6O)CCC5(C)C4CCC3(C)C1C2C` (stereo unspecified), the T/C was 104 % of control (endpoint: mean tumor weight, dose: 5.0 mg/kg/injection, schedule: Q01DX011 (sc), vehicle: steriod suspending solution, higher = larger tumour); 77 % of control (endpoint: mean tumor weight, dose: 10.0 mg/kg/injection, schedule: Q01DX011 (sc), vehicle: steriod suspending solution, higher = larger tumour); 85 % of control (endpoint: mean tumor weight, dose: 20.0 mg/kg/injection, schedule: Q01DX011 (sc), vehicle: steriod suspending solution, higher = larger tumour); 94 % of control (endpoint: mean tumor weight, dose: 40.0 mg/kg/injection, schedule: Q01DX011 (sc), vehicle: steriod suspending solution, higher = larger tumour).
For the compound `NC(Cc1cc(I)c(Oc2ccc(O)c(I)c2)c(I)c1)C(=O)O` (stereo unspecified), the T/C by setting is: (endpoint: mean tumor weight, dose: 25.0 micrograms/kg/injection, schedule: Q01DX011 (ip), vehicle: saline, higher = larger tumour) 93 % of control; (endpoint: mean tumor weight, dose: 100.0 micrograms/kg/injection, schedule: Q01DX011 (ip), vehicle: saline, higher = larger tumour) 115 % of control; (endpoint: mean tumor weight, dose: 200.0 micrograms/kg/injection, schedule: Q01DX011 (ip), vehicle: saline, higher = larger tumour) 118 % of control.
Take `Cn1c(=O)[nH]c2nncnc2c1=O`: the T/C reads like this: (endpoint: median survival time, dose: 8.0 mg/kg/injection, schedule: Q01DX009 (ip), vehicle: water, higher = longer survival) 108 % of control; (endpoint: median survival time, dose: 16.0 mg/kg/injection, schedule: Q01DX009 (ip), vehicle: water, higher = longer survival) 86 % of control; (endpoint: median survival time, dose: 37.5 micrograms/kg/injection, schedule: Q01DX009 (ip), vehicle: water, higher = longer survival) 123 % of control; (endpoint: median survival time, dose: 75.0 micrograms/kg/injection, schedule: Q01DX009 (ip), vehicle: water, higher = longer survival) 123 % of control; (endpoint: median survival time, dose: 150.0 micrograms/kg/injection, schedule: Q01DX009 (ip), vehicle: water, higher = longer survival) 111 % of control; (endpoint: median survival time, dose: 300.0 micrograms/kg/injection, schedule: Q01DX009 (ip), vehicle: water, higher = longer survival) 123 % of control.
As for `C=C/C(C)=C/[C@H](C)C(=O)C[C@H](O)CC1CC(=O)NC(=O)C1`, the T/C runs as follows: (endpoint: median survival time, dose: 6.25 mg/kg/injection, schedule: Q01DX009 (ip), vehicle: saline with Tween-80, higher = longer survival) 95 % of control; (endpoint: median survival time, dose: 12.5 mg/kg/injection, schedule: Q01DX009 (ip), vehicle: saline with Tween-80, higher = longer survival) 98 % of control; (endpoint: median survival time, dose: 12.5 mg/kg/injection, schedule: Q04DX003 (ip), vehicle: saline with Tween-80, higher = longer survival) 98 % of control; (endpoint: median survival time, dose: 25.0 mg/kg/injection, schedule: Q01DX009 (ip), vehicle: saline with Tween-80, higher = longer survival) 97 % of control; (endpoint: median survival time, dose: 25.0 mg/kg/injection, schedule: Q04DX003 (ip), vehicle: saline with Tween-80, higher = longer survival) 111 % of control; (endpoint: median survival time, dose: 50.0 mg/kg/injection, schedule: Q04DX003 (ip), vehicle: saline with Tween-80, higher = longer survival) 92 % of control. The T/C (endpoint: median survival time, dose: 100.0 mg/kg/injection, schedule: Q04DX003 (ip), vehicle: saline with Tween-80, higher = longer survival) is 101 % of control.

Values taken from PubChem BioAssay AID270 (DTP/NCI, 2004).
